According to patent US20170239351A1, “Therapeutic Combinations of a BTK Inhibitor, a PI3K Inhibitor, a JAK-2 Inhibitor, a PD-1 Inhibitor, and/or a PD-L1 Inhibitor” (Acerta Pharma B.V., priority 2014, published 2017):
“Also recorded” adds a separate entry of the source.

Legend:
pancreatic cancer = test: KPC pancreatic cancer model (spontaneously appearing tumors); assay type: in vivo, KPC mice; conditions: 15 mg/kg BID oral
Method: The KPC mouse model recapitulates many of the molecular, histopathologic, and clinical features of human disease (Westphalen and Olive, Cancer J. 2012, 18, 502-510). Combination therapy with gemcitabine was also evaluated in this model. Mice were enrolled after identification of spontaneously appearing tumors in the pancreas that were ≧100 mm^3 (as assessed by high-resolution ultrasonography).

relapsed/refractory CLL = test: Clinical study of Formula (XVIII) in relapsed/refractory CLL/SLL
CD8^+ T cells = test: Cytotoxic T cell (CTL) assay; assay type: cell-based; conditions: 500 nM
Method: Without being bound by any theory, CD8^+ T cells have two primary effector functions: (1) produce large amounts of IFN-γ (which activates macrophages), and (2) cytolytic activity. […] The targets were B lymphoblasts from lipopolysaccharide (LPS) treated cultures. The assay was performed by incubating different ratios of effectors:targets for 4 hours.

EGFR = EGFR (Homo sapiens, UniProt P00533); test: EGF-induced EGFR phosphorylation in A431 cells (phosphoflow); conditions: 10 μM (highest concentration tested)
Sequence of EGFR (P00533 25-1210): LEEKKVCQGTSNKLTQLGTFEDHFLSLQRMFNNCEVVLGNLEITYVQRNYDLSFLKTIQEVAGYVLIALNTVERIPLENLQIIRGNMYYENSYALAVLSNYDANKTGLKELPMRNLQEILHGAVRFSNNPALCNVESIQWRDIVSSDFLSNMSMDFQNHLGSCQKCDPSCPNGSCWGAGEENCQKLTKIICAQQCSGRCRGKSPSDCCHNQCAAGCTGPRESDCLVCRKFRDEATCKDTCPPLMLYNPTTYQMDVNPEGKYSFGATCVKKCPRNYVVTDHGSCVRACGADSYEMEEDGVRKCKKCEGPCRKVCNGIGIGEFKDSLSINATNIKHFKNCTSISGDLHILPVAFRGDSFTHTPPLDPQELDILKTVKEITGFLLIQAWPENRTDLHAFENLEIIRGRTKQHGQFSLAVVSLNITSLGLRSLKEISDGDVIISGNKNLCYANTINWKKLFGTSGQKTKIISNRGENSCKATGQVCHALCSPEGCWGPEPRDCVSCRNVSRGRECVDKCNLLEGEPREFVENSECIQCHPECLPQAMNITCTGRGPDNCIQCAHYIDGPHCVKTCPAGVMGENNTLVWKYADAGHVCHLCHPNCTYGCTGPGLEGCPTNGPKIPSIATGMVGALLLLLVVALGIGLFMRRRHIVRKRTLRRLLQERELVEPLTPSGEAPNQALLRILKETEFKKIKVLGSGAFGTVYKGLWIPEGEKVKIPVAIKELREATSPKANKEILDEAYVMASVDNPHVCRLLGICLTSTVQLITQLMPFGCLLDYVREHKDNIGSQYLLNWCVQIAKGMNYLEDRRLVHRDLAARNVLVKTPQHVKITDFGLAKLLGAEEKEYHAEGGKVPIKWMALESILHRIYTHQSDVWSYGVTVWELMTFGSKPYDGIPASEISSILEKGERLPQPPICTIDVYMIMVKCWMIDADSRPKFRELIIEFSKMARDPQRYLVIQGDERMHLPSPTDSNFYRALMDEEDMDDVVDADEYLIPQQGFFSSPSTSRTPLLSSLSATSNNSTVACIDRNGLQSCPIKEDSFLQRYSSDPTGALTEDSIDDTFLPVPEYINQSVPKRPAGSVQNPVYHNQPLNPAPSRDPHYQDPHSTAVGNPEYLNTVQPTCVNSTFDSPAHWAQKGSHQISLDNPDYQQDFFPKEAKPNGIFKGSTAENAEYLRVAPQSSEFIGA

NSCLC lung tumors = test: Genetic tumor model of NSCLC (KrasLA2); assay type: in vivo, mice; conditions: 15 mg/kg
Excerpt: The model is designed to have sporadic expression in single cells of G12D mutant Kras off its own promoter triggered by spontaneous intrachromosomal recombination. Johnson, et al. Nature 2001, 410, 1111-16. While the mutant Kras protein is expressed in a few cells in all tissues, tumor development is seen only in the lung at high penetrance.

[1] = Standard drug metabolism and pharmacokinetics (DMPK) assays; assay type: in vitro ADME

Compound: CC#CC(=O)N1CCC[C@H]1c1nc(-c2ccc(C(=O)Nc3ccccn3)cc2)c2c(N)nccn12 [Formula (XVIII), (S)-4-(8-amino-3-(1-(but-2-ynoyl)pyrrolidin-2-yl)imidazo[1,5-a]pyrazin-1-yl)-N-(pyridin-2-yl)benzamide]
- CD8 cells in tumor tissues (pancreatic cancer): significant increase
- immunosuppressive TAMs, MDSCs and Tregs in tumor tissues (pancreatic cancer): significantly reduced
- survival at day 14 (pancreatic cancer): 6/6
- PD, % (relapsed/refractory CLL; 100 mg BID (N = 3)): (0) %
- PR, % (relapsed/refractory CLL; 100 mg BID (N = 3)): (100) %
- PD, % (relapsed/refractory CLL; 100 mg QD (N = 8)): (0) %
- PR, % (relapsed/refractory CLL; 100 mg QD (N = 8)): (88) %
- PD, % (relapsed/refractory CLL; 175 mg QD (N = 8)): (0) %
- PR + L, % (relapsed/refractory CLL; 175 mg QD (N = 8)): (37) %
- PR, % (relapsed/refractory CLL; 175 mg QD (N = 8)): (63) %
- PD, % (relapsed/refractory CLL; 250 mg QD (N = 7)): (0) %
- PR + L, % (relapsed/refractory CLL; 250 mg QD (N = 7)): (29) %
- PR, % (relapsed/refractory CLL; 250 mg QD (N = 7)): (71) %
- PD, % (relapsed/refractory CLL; 400 mg QD (N = 5)): (0) %
- PR + L, % (relapsed/refractory CLL; 400 mg QD (N = 5)): (40) %
- PR, % (relapsed/refractory CLL; 400 mg QD (N = 5)): (40) %
- PD, % (relapsed/refractory CLL; All Cohorts (N = 31)): (0) %
- PR + L, % (relapsed/refractory CLL; All Cohorts (N = 31)): (23) %
- PR, % (relapsed/refractory CLL; All Cohorts (N = 31)): (71) %
- time of treatment to reach the same median % change in SPD (relapsed/refractory CLL; CLL patients): 7 months
- Headache, treatment-related adverse event (relapsed/refractory CLL; Grade 1/2, All (N = 44)): 7 (16) n (%)
- Diarrhea, treatment-related adverse event (relapsed/refractory CLL; Grade 1, All (N = 44)): 4 (9) n (%)
- Increased tendency to bruise, treatment-related adverse event (relapsed/refractory CLL; Grade 1, All (N = 44)): 6 (14) n (%)
- Petechiae, treatment-related adverse event (relapsed/refractory CLL; Grade 1, All (N = 44)): 3 (7) n (%)
- dose-limiting toxicities (DLTs) (relapsed/refractory CLL; human, in vivo): No DLTs were observed
- grade of adverse events (relapsed/refractory CLL; human, in vivo): only grade 1 AEs were observed
- lymphocytosis (relapsed/refractory CLL; human, in vivo): A lack of lymphocytosis was observed
- plasma CXCL12 and CCL2 levels (relapsed/refractory CLL; human, in vivo): significant decrease
- treatment-related serious adverse events (SAEs) (relapsed/refractory CLL; human, in vivo): No treatment-related serious adverse events (SAEs) were observed
- progression in patients with the 17p deletion (relapsed/refractory CLL; to date): no 17p patients have progressed
- CD8^+ T cell function as % cytotoxicity (CD8^+ T cells): no effect on CD8^+ T cell function
- inhibition of EGFR phosphorylation (EGFR): no inhibition; also recorded: does not inhibit EGFR
- number of tumors (NSCLC lung tumors): fewer overall tumors
- tumor volumes versus vehicle (NSCLC lung tumors): significant decrease in tumor volumes
- solubility, plasma protein binding and oral bioavailability versus ibrutinib [1]: greater solubility, less plasma protein binding, and better oral bioavailability than ibrutinib
